In patent US9132179B2, “Compositions for reducing bacterial carriage and CNS invasion and methods of using same” (The UAB Research Foundation, priority 2003, dated 2015):

Legend:
TIGR4 strain = experiment: Attachment of TIGR4 strain to ganglioside-coated ELISA plates, short-term incubation; assay type: binding, S. pneumoniae
Method: The ability of the TIGR4, and its nanA and nanB mutants to bind to specific gangliosides is measured. The gangliosides used include mixed gangliosides, asialo-GM1, GM1, GD1a, GD1b, GT1 (Calbiochem) and the GM3 ganglioside (Sigma). The GM3 ganglioside lacks the terminal or internal GalNAcβ1-4Gal sequence involved in pneumococcal binding and is used as a negative control. These mixed, mono-, di- or tri-sialic acid containing gangliosides bind readily to ELISA plates. […] Using ganglioside-coated plates, the ability to attach to these plates by wildtype TIGR4 strain, the stable opaque and transparent phase variants of the TIGR4 strain, the nanA, nanB, and nanA/nanB mutant strains is compared. These analyses include short-term incubation (1 hr) and extended incubations (24 hrs) on ganglioside-coated plates. Attached pneumococci are removed from the ganglioside plates by short incubation (10-15 min.) in Todd Hewitt medium containing 0.5% yeast extract followed by repeated pipetting and plating the released bacteria on blood agar plates. Alternatively 41° C. Todd Hewitt broth agar containing 0.5% yeast extract is poured on top of the attached pneumococci and the colonies are counted through the bottom of the plate. Controls include plates with no pneumococci and plates with no gangliosides but with pneumococci.

[1] = GM1-binding peptide; cited from earlier work
[2] = system: S. pneumoniae strain EF3030; experiment: GLS preincubation of S. pneumoniae strain EF3030 before nasal application; CFU in tissues; assay type: in vivo; conditions: EF3030 preincubated with GLS, xid mice, four days after nasal application
Method: Aliquots (3×10^7 CFUs) of S. pneumoniae were incubated for 30 minutes with 20 μg asialo-GM1 (a-GM1) or 125 μg of mixed GLSs (MG) prior to nasal application. The ON/E, OBs, brain and NW, NALT and lungs were collected four days later and analyzed for numbers of S. pneumoniae. The 0 value on the Y-axis represents the absence of detectable CFUs. Indicated are the mean+one SE of 5 mice and the P-values were obtained following statistical analysis. The data are representative of two separate experiments.
The blood was collected into a heparinized capillary tube from the retroorbital plexus. Mice were disinfected with 70% ethanol prior to collection of nasal wash (NW), kidney, spleen, and lungs. […]
Eight serial, three-fold dilutions were made of tissues and body fluids in sterile Ringer's solution and plated on blood agar plates containing 4 μg/ml of gentamicin sulfate. […] The results were expressed as CFUs/organ, per NW or per ml of blood.
To block GLS binding sites, 3×10^7 CFU of S. pneumoniae strain EF3030 were incubated for 30 min on ice with either 20 μg asialo-GM1 from human brain or 125 μg of mixed GLSs (18% GM1, 55% GD1a, 15% GD1b, 10% GT1b, 2% other GLSs) from bovine brain (Calbiochem-Novabiochem Corporation, Inc., La Jolla, Calif.). […] Tissues were analyzed for CFUs four days later.

| Substance | binding of pneumococci to coated plates (TIGR4 strain) | IC50 [1] [µM] | reduction of colonization in CNS ([2]; CNS tissue) [fold] | reduction of colonization in lungs ([2]; lungs) [fold] |
| --- | --- | --- | --- | --- |
| GM1 | not | – | – | – |
| GM3 [GM-3] | not | – | – | – |
| VWRLLAPPFSNRLLP | – | 1 | – | – |
| asialo-GM1 | bind and attachment | – | 25 | 63 |
